# Laboratory results: patent publication US5916919A, “Retrovirus protease inhibitors” (priority 1997, dated 1999)
# Read-outs that look alike come from different tables or passages of the source.
# How the values were obtained:
# [1] = HIV positive, ARC and AIDS individuals; cited from earlier work
# HIV [2] = conditions: cited from earlier work
# HIV [3] = conditions: cited from earlier work; remark: listed apart in the source
# HSV = conditions: cited from earlier work
# HIV-1 protease = target: T1, HIV-1 protease (Human immunodeficiency virus type 1 group M subtype B, UniProt P04585); assay: HPLC assay of proteolytic activity of recombinant HIV-1 protease (SQNYPIV substrate); type: biochemical; conditions: for Inhibition (inhibitory activity of compounds against HIV-1 protease) / inhibition at 17.9 µg/mL: 17.9 μg/ml, HPLC assay; for inhibition at 17.9 µg/mL: read-out: Inhibition (inhibitory activity of compounds against HIV-1 protease); for anti-HIV-1 protease activity (in words): 17.9 μg/ml (tested concentration)
# T1 construct: Recombinant HIV-1 protease was prepared from the expression vector, PGEX-PR 107; made in house
# Protocol: Recombinant HIV-1 protease was prepared from the expression vector, PGEX-PR 107, in E. coli DII5a and was purified according to the method established in Dr. Wan's laboratory.
# The proteolytic activity of HIV-1 PR was measured by Dr. Wan's group at the Biochemistry Department using the synthetic heptapeptide Ser-Gln-Asn-Tyr-Pro-Ile-Val (SQNYPIV), corresponding to the p24-p17 cleavage site in the natural gag precursor, as substrate. The products of cleavage were analyzed by reversed-phase high-performance liquid chromatography (RP-HPLC, Ultrasphere ODS, 5μ, 4.6 mm×15 cm, Beckman, Calif., USA) with a 7-33% acetonitrile gradient in 0.1% trifluoroacetic acid (TFA). Product peak areas were integrated by a data system (Chromatopac C-R3A, Shimadzu, Japan) and compared with the standard peptide SQNY, which is expected to be generated from heptapeptide SQNYPIV after HIV-1 protease digestion. The extinction coefficient of the peptide SQNY was used to estimate the rate of proteolysis of the heptapeptide substrate. The assay was performed in a volume of 140 μl containing 90 pmole of substrate, 2 U of HIV-1 protease and compound solution in 0.1 M NaOAc buffer, pH 5.5, with 1 M (NH4)2 SO4, at 37° C. The reaction which proceeded for 2 h was terminated by the addition of 20 μl of aqueous 10% trifluoroacetic acid. The supernatant obtained by centrifuging at 12,000 rpm for 3 min was then analyzed by the hplc method. The unit of enzyme activity was defined as the amount of enzyme which yields 1 nmol of tetrapeptide SQNY under the above conditions in 1 min.
# The proteolytic activity of HIV-1 protease inhibited by the compound was calculated as the activity of the control subtracting that of the sample, and then divided by itself.
# HIV [4] = conditions: cited from earlier work; remark: listed apart in the source
# HIV [5] = conditions: MT-4 cells, cited from earlier work
# HIV [6] = conditions: MT-4 cells; cited from earlier work
# [7] = system: HIV-specific antigen expression; conditions: MT-4 cells; cited from earlier work
# [8] = system: HIV-infected Molt-4 clone No. 8 cells; conditions: cited from earlier work
compound,measurement,setting,value
"Cc1cn([C@H]2C[C@H](N=[N+]=[N-])[C@@H](CO)O2)c(=O)[nH]c1=O [AZT, 3'-azido-3'-deoxythymidine]",toxicity,[1],"frequently toxic, causing bone marrow suppression resulting in anemia leucopenia and thrombocytopenia"
CC(C)[C@@H]1CC[C@]2(C(=O)O)CC[C@]3(C)C(CCC4[C@@]5(C)CC[C@H](O)C(C)(C)C5CC[C@]43C)C12 (stereo partly shown) [dihydrobetulinic acid],inhibition of HIV replication (in words),HIV [2],potent inhibitors of HIV replication
C=C(C)[C@@H]1CC[C@]2(C(=O)O)CC[C@]3(C)[C@H](CC[C@@H]4[C@@]5(C)CC[C@H](O)C(C)(C)[C@@H]5CC[C@]43C)[C@@H]12 [betulinic acid],inhibition of HIV replication (in words),HIV [2],potent inhibitors of HIV replication
O=C1O[C@@H]2[C@@H](O)[C@H](O)[C@@H](CO)O[C@H]2c2c1cc(O)c(O)c2O [norbergenin],selectivity index,HIV [3]; IC50/EC50 basis not stated,above 25
same,EC50,HIV [3]; in vitro anti-HIV,20 µg/mL
same,IC50,HIV [3]; in vitro,over 500 μg/ml
same,anti-HIV activity (in words),HIV [3]; in vitro,moderate anti-HIV activity
O=Cc1cc(O)c(O)c(O)c1 [gallic aldehyde],anti-HSV activity (in words),HSV,strong anti-HSV activity
"C[C@@H]1CC[C@]2(C(=O)O)CC[C@]3(C)C(=CC[C@@H]4[C@@]5(C)C[C@@H](O)C(=O)C(C)(C)[C@@H]5CC[C@]43C)[C@@H]2[C@]1(C)O [Compound 1, 2α,19α-Dihydroxy-3-oxo-12-ursen-28-oic acid]",Inhibition (inhibitory activity of compounds against HIV-1 protease),HIV-1 protease,72.19%
same,inhibition at 17.9 µg/mL,HIV-1 protease,72%
CC(=O)[C@@H]1CC[C@]2(C(=O)O)CC[C@]3(C)[C@H](CC[C@@H]4[C@@]5(C)CC[C@H](O)C(C)(C)[C@@H]5CC[C@]43C)[C@@H]12 [platanic acid],inhibition of HIV replication (in words),HIV [2],potent inhibitors of HIV replication
"CC1(C)CC[C@]2(C(=O)O)CC[C@]3(C)C(=CC[C@@H]4[C@@]5(C)C[C@@H](O)[C@H](O)C(C)(C)[C@@H]5CC[C@]43C)[C@@H]2C1 [Compound 4, 2α,3β-Dihydroxy-12-oleanen-28-oic acid]",anti-HIV-1 protease activity (in words),HIV-1 protease,most active
same,inhibition at 17.9 µg/mL,HIV-1 protease,100%
COc1ccc(-c2cc(=O)c3c(O)cc(O[C@@H]4O[C@H](CO)[C@H](O)[C@H](O)[C@H]4O)cc3o2)cc1 [acacetin-7-O-β-D-galactopyranoside],EC50,HIV [4],8 µM
same,IC50,HIV [4],37 µM
same,anti-HIV activity (in words),HIV [4],significant anti-HIV activity
same,therapeutic index,HIV [4],5
"C[C@@H]1CC[C@]2(C(=O)O)CC[C@]3(C)C(=CC[C@@H]4[C@@]5(C)C[C@@H](O)[C@@H](O)C(C)(C)[C@@H]5CC[C@]43C)[C@@H]2[C@]1(C)O [Compound 5, 2α,3α,19α-Trihydroxy-12-ursen-28-oic acid]",anti-HIV-1 protease activity (in words),HIV-1 protease,did not show activity
COc1c(O)cc2c(c1O)[C@@H]1O[C@H](CO)[C@@H](O)[C@H](O)[C@H]1OC2=O [bergenin],anti-HIV activity (in words),HIV [3]; in vitro,moderate anti-HIV activity
"C[C@@H]1CC[C@]2(C(=O)O)CC[C@]3(C)C(=CC[C@@H]4[C@@]5(C)CC[C@@H](O)C(C)(C)[C@@H]5CC[C@]43C)[C@@H]2[C@]1(C)O [Compound 3, 3α,19α-Dihydroxy-12-ursen-28-oic acid]",Inhibition (inhibitory activity of compounds against HIV-1 protease),HIV-1 protease,42.18%
same,inhibition at 17.9 µg/mL,HIV-1 protease,42%
geponin,anti-HSV activity (in words),HSV,strong anti-HSV activity
CC1(C)[C@@H](O[C@H]2O[C@H](C(=O)O)[C@@H](O)[C@H](O)[C@H]2O[C@@H]2O[C@H](C(=O)O)[C@@H](O)[C@H](O)[C@H]2O)CC[C@]2(C)[C@H]3C(=O)C=C4[C@@H]5C[C@@](C)(C(=O)O)CC[C@]5(C)CC[C@@]4(C)[C@]3(C)CC[C@@H]12 [glycyrrhizin],concentration at which HIV-induced plaque formation was inhibited,HIV [5],0.6 mM
same,IC50,"HIV [5]; read-out: 50% inhibitory dose, HIV-induced plaque formation",150 µM
same,concentration at which cytopathic effect of HIV was inhibited,HIV [6],0.3 mM
same,concentration at which HIV-specific antigen expression was inhibited,[7],0.6 mM
same,inhibition of giant cell formation,[8],inhibited giant cell formation
"C[C@H]1[C@H](C)CC[C@]2(C(=O)O)CC[C@]3(C)C(=CC[C@@H]4[C@@]5(C)CC[C@H](O)C(C)(C)[C@@H]5CC[C@]43C)[C@H]12 [Compound 2, 3β-Hydroxy-12-ursen-28-oic acid]",Inhibition (inhibitory activity of compounds against HIV-1 protease),HIV-1 protease,85.07%
same,inhibition at 17.9 µg/mL,HIV-1 protease,85%
"C[C@@H]1CC[C@]2(C(=O)O)CC[C@]3(C)C(=CC[C@@H]4[C@@]5(C)C[C@@H](O)[C@H](O)C(C)(C)[C@@H]5CC[C@]43C)[C@@H]2[C@]1(C)O [Compound 6, 2α,3β,19α-Trihydroxy-12-ursen-28-oic acid]",Inhibition (inhibitory activity of compounds against HIV-1 protease),HIV-1 protease,49.47%
same,inhibition at 17.9 µg/mL,HIV-1 protease,49%
